From patent US20070009568A1, “METHODS FOR IMMOBILIZING MOLECULES ON SURFACES” (priority 2005, published 2007) come the findings set out here.

“Also recorded” adds a separate entry of the source.

The test system of the assay is fibroblasts. The assay is described as follows: Fibroblast attachment to tresylated titanium wire grafted with P-15. In kind it is cell-based. The note with it: then P-15 1 mg/ml in 100 mM phosphate buffer pH 7.4 overnight, compared with control wire not exposed to P-15. The protocol: In this Example, titanium wire was treated with tresylation and attachment of P-15, followed by exposure to fibroblasts. The titanium wire was washed thoroughly in ethanol, then soaking in a 0.1 N NaOH solution for 15 minutes, followed by washing 10× with DI H2O. The surface was then rinsed in full strength H2O2, then soaked in 50% H2O2 overnight. The wire was then placed in a tresylation reaction mixture of trifluoroethanesulfonyl chloride (200 ul), pyridine (1.0 ml), and tetrahydrofuran (20 ml) overnight, followed by washing in DI H2O. The surface was then placed in a solution containing P-15 1 mg/ml in 100 mM phosphate buffer, pH 7.4, overnight. Following this treatment, the wire was again rinsed in DI H2O, then placed in a cell culture which contained fibroblasts that had been fluorescently labeled for 24 hours.
As a control, a second titanium wire was treated identically to the first wire, described above, except that it was not exposed to P-15 before being exposed to the fluorescently-labeled cells.

For “G-T-P-G-P-Q-G-I-A-G-Q-R-G-V-V (GTPGPQGIAGQRGVV) [P-15, collagen receptor agonist]”, the “attachment of fluorescently labeled fibroblasts to the wire (photomicrographs, FIG. 1)” value is “increased fibroblast binding; also recorded: far more attached cells”.
